Measurements published in paper PMC7793531 (International Journal of Molecular Sciences, 2020).
“Also recorded” adds a separate entry of the source. Starred links: 1 amine or outer side, 2 acyl side, 3 side chain; linkers in the order of their positions; H or OH if unused. Non-standard residues stand in square brackets, D forms with d. Residues, ends and D or L forms follow the SMILES beside them. Groups on a side chain read outwards from the residue. ξ: configuration not given here. *: point of attachment. Oic(3aξ,7aξ) = O=C(O)[C@@H]1CC2CCCCC2N1; hArg = N=C(N)NCCCC[C@H](N)C(=O)O; X1 = N=C(N)NCCCC[C@H](N)CN*; X3 = N=C(N)NCCC[C@H](N)CN*; X2 = N=C(N)NCC[C@H](N)CN*; Orn = NCCC[C@H](N)C(=O)O; Dab = NCC[C@H](N)C(=O)O; CO = O=C([*:1])[*:2]

Molecular target: T1, VEGF-A165/NRP-1 complex (Homo sapiens, UniProt O14786)
T1 construct: purchased R&D Systems
T1 sequence (O14786 22-641 limits assumed): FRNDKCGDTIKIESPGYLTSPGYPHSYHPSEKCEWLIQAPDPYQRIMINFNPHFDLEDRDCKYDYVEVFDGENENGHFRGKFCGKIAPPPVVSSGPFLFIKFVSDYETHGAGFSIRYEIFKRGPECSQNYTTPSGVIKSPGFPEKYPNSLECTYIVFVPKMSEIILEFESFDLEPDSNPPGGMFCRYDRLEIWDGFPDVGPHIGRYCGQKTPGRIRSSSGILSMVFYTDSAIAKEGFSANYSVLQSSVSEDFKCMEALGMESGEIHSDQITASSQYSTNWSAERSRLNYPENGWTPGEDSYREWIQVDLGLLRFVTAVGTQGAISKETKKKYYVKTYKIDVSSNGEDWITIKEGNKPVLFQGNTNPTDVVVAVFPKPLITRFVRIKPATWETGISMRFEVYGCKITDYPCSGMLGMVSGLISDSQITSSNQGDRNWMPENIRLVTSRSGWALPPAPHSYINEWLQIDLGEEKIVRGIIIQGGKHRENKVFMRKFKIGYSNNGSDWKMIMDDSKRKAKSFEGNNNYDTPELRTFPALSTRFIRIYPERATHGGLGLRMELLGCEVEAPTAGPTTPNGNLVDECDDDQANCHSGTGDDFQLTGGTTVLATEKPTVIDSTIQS
Test: Competitive ELISA-like assay, inhibition of bt-VEGF-A165 binding to immobilized NRP-1
Settings: recombinant human NRP-1, bt-VEGF-A165, chemiluminescence; read-out: IC50, VEGF-A165/NRP-1 complex inhibitory effect
Method: Inhibitory activity of urea–peptide hybrids against VEGF-A165/NRP-1 complex formation was assessed with a screening ELISA-like assay. NRP-1 was immobilized on microplate wells by simple adsorption and urea–peptide hybrids competed for NRP-1 with biotinylated VEGF-A165 (bt-VEGF-A165). The amount of receptor bound bt-VEGF-A165 was visualized by its interaction with the streptavidin–horseradish peroxidase conjugate (strep-HRP) and the chemiluminescent substrate. The first analyzed group of compounds were analogues 1–3 with the urea bond between L1 and L2. […] The best hybrid in this group was compound 3, which had Lys^U (gDab) branching (where “g” corresponds to guanidinium group), but its IC50 value decreased only 2-fold. Therefore, we assume that no additional interactions between urea bond and the surface of the protein occurred. […] In the case of urea–peptide hybrids, the urea bond might be capable of forming additional hydrogen bonds with protein residues on the surface of NRP-1. The affinity of compounds may conceivably be affected by the colocation of the urea bond and the free amino group of hArg in the branching. In addition, for compounds 4–6, we can observe that decreasing the distance between the free amino group in the main chain and the urea bond in the branching has a positive effect on compounds’ affinity for NRP-1.
This method was previously described for NRP-1 [44, 45, 46]. Briefly, overnight coating at 4 °C of the flat bottom surface of a 96-well plate with 100 μL (200 ng/well) recombinant human NRP-1, NRP-2, VEGFR-1 or VEGFR-2 was followed by non-specific interactions blocking using 0.5% bovine serum albumin (BSA) in PBS. Next, 50 µL of urea–peptide hybrid in PBS and 50 µL (400 ng/mL) of human (bt)-VEGF-A165 in PBS containing 4 µg/mL of heparin were added respectively. Plates were incubated for 2 h at RT, and then washed and treated with streptavidin-horseradish peroxidase conjugate in PBS (1:8000). Next, 100 µL chemiluminescent substrate was added, and luminescence was quantified using Tecan Infinite F200Pro microplate reader (Männedorf, Switzerland). In a positive control (P) only (bt)-VEGF-A165 was present in wells. Not coated by receptor wells were treated as a negative control (N). Percentages of inhibition were calculated by the following formula:100% − [[(S − N)/(P − N)]∙100%](1) where S is the signal intensity measured in wells with urea–peptide hybrid. The IC50 of each urea–peptide hybrid was calculated using the nonlinear regression function with GraphPad Prism Version-5.01 (GraphPad Software, San Diego, CA, USA). Data are presented as log (inhibitor) versus normalized response-variable slope (Figure S16). Data are the means ± SEMs of two or three independent experiments, each performed in triplicate.

Compound | IC50 [nM]
N=C(N)NCCC[C@H](NC(=O)[C@@H]1CC2CCCCC2N1C(=O)[C@H](CCN)NC(=O)NC[C@@H](N)CCCNC(=O)[C@@H](N)CCCNC(=N)N)C(=O)O (some centres unmarked) [Compound 2] | 2100
N=C(N)NCCC[C@H](N)CNC(=O)NCCC[C@H](N)C(=O)N[C@@H](CCN)C(=O)N1C2CCCCC2C[C@H]1C(=O)N[C@@H](CCCNC(=N)N)C(=O)O (some centres unmarked) [Compound 5] (H-[Orn]([CO-X3])[Dab][Oic(3aξ,7aξ)]R-OH) | 360
N=C(N)NCCC[C@H](N)CNC(=O)NC[C@H](N)CNC(=O)N[C@@H](CCN)C(=O)N1C2CCCCC2C[C@H]1C(=O)N[C@@H](CCCNC(=N)N)C(=O)O (some centres unmarked) [Compound 7] | 2100
N=C(N)NCCC[C@H](NC(=O)[C@@H]1CC2CCCCC2N1C(=O)[C@H](CCN)NC(=O)NC[C@@H](N)CCCNC(=O)NC[C@@H](N)CNC(=N)N)C(=O)O (some centres unmarked) [Compound 9] | 1800

Continued, values first:

IC50 [nM] | Compound
1800 | N=C(N)NCCCC[C@H](N)C(=O)NCC[C@H](N)CNC(=O)N[C@@H](CCN)C(=O)N1C2CCCCC2C[C@H]1C(=O)N[C@@H](CCCNC(=N)N)C(=O)O (some centres unmarked) [Compound 1]
1200 | N=C(N)NCCC[C@H](NC(=O)[C@@H]1CC2CCCCC2N1C(=O)[C@H](CCN)NC(=O)NC[C@@H](N)CCCCNC(=O)[C@@H](N)CCNC(=N)N)C(=O)O (some centres unmarked) [Compound 3]
490 | N=C(N)NCCC[C@H](NC(=O)[C@@H]1CC2CCCCC2N1C(=O)[C@H](CCN)NC(=O)[C@@H](N)CCCCNC(=O)NC[C@@H](N)CCNC(=N)N)C(=O)O (some centres unmarked) [Compound 4] (H-K([CO-X2])[Dab][Oic(3aξ,7aξ)]R-OH)
2100 | N=C(N)NCCC[C@H](NC(=O)[C@@H]1CC2CCCCC2N1C(=O)[C@H](CCN)NC(=O)NC[C@@H](N)CCNC(=O)NC[C@@H](N)CCNC(=N)N)C(=O)O (some centres unmarked) [Compound 8]

Test system: not listed separately
Test: In vitro enzymatic stability in human blood serum (LC-SWATH-MS)
Type: in vitro ADME
Settings: human blood serum (pooled from four healthy persons), 37 °C, after 24 h, read-out: initial substrate concentration remaining
Method: Rapid renal clearance and enzymatic degradation are classified as most important disadvantages of peptides as drugs. Covalent linkage to plasma proteins or chemical modifications, including amide bond modifications, might improve their half-lives. We performed proteolytic stability studies in human blood serum to investigate whether the introduction of urea bonds affected the half-lives of compounds from each of synthesized group of hybrids. Compounds 3, 6 and 7 were incubated with human serum at 37 °C. Samples were taken at different time intervals and analyzed using LC-SWATH-MS [88, 89, 90]. […] Hybrids 6 and 7 were stable toward enzymatic degradation, with 50% of each compound still being intact after 96 h (Figure 5). […] Overall, it can be concluded that the substitution of an amide bond with a urea bond has a positive effect on the proteolytic stability of the examined inhibitors.
The study was conducted in full accordance with ethical principles in accordance with the ICH E6 (R2) Guideline for Good Clinical Practice and the Code of Good Customs in Science developed by the Polish Academy of Sciences. Signed consent for using serum was obtained from volunteers. The Rector’s Commission for Ethics of Scientific Research with Human Participation, University of Warsaw, Warsaw, Poland gave the ethical approval (approval number 51/2020). Human blood from four healthy persons was directly drawn into evacuated tubes and left undisturbed at room temperature for 1 h to clot. Tubes were centrifuged at 2500× g for 10 min to prevent possible platelet activation. Serum was pipetted out of the blood collection tubes, pooled and collected in microtubes.
A degradation assay was adapted from a method described previously. Human blood serum was preactivated in Eppendorf ThermoMixer® Comfort (Hamburg, Germany) at 37 °C for 20 min (350 rpm). Next, 20 μL of aqueous urea–peptide hybrid stock solution was added to give ∼750 μg/mL final compound concentration, and incubation was continued. At selected time intervals, 50 μL of the mixture was collected and quenched by adding 200 μL of ACN:H2O:FA mixture (89:10:1, v:v:v). The obtained suspension was vortexed for 1 min (3000 min^−1) and centrifuged for 10 min in 4 °C (11,000× g). 100 μL of supernatant was collected and lyophilized. The samples reconstituted in 1 mL of 10 mM ammonium formate with 0.1% FA were subjected to LC-MS. Relative concentration at time intervals was calculated using peak area of either individual or most intense fragment of compound of interest. Analyst software version 1.7.1 was used for data acquisition, Peak View 2.2 and MultiQuant 2.1 (Sciex, ON) were used for data processing. Detailed analytical data can be found in Supplementary Materials (Figures S17–S45). […]

remaining at 24 h [%] | Compound
~25 | N=C(N)NCCC[C@H](NC(=O)[C@@H]1CC2CCCCC2N1C(=O)[C@H](CCN)NC(=O)NC[C@@H](N)CCCCNC(=O)[C@@H](N)CCNC(=N)N)C(=O)O (some centres unmarked) [Compound 3]

Same assay, conditions: human blood serum (pooled from four healthy persons), 37 °C, after 96 h, read-out: compound still intact

remaining at 96 h [%] | Compound
50 | N=C(N)NCCC[C@H](N)CNC(=O)NC[C@H](N)CNC(=O)N[C@@H](CCN)C(=O)N1C2CCCCC2C[C@H]1C(=O)N[C@@H](CCCNC(=N)N)C(=O)O (some centres unmarked) [Compound 7]

Test system: not listed separately
Test: Human blood serum
Settings: 37 °C, up to 96 h

Compound | cleaved bond | not cleaved | fragment found
H2N-DapU(ArgU)-Dab-Oic-Arg-OH | OicL3-ArgL4 | urea bonds remained intact within the monitored time of the experiment | 
H2N-LysU(gDab)-Dab-Oic-Arg-OH | gDabL1'-Lys^UL1; also recorded: OicL3-ArgL4 | urea bonds remained intact within the monitored time of the experiment | C25H49N10O5+ (RT 5.43 min)
H-Dab(hArg^U)Dab-Oic-Arg-OH (H-[Dab]([CO-X1])[Dab][Oic(3aξ,7aξ)]R-OH; SMILES N=C(N)NCCCC[C@H](N)CNC(=O)NCC[C@H](N)C(=O)N[C@@H](CCN)C(=O)N1C2CCCCC2C[C@H]1C(=O)N[C@@H](CCCNC(=N)N)C(=O)O) | OicL3-ArgL4; also recorded: DabL1-DabL2 | urea bonds remained intact within the monitored time of the experiment | C25H49N10O5+ (RT 5.36/5.72 min); also recorded: C25H46N10O4+ (RT 6.44/6.64 min); also recorded: C19H36N7O4+ (RT 3.53 min); also recorded: C12H27N7O3+ (RT 1.21 min)
Lys(hArg)-Dab-Oic-Arg (H-K(hArg)[Dab][Oic(3aξ,7aξ)]R-OH) | hArgL1'-LysL1, major; also recorded: LysL1-DabL2; also recorded: OicL3-ArgL4 |  | C25H48N9O5+ (RT 2.87 min); also recorded: C19H36N7O4+ (RT 3.54 min)
